# Assay results reported in US6057366A (priority 1994, dated 2000).
# Entries after “also recorded” stand apart in the source; their conditions may differ.
# Columns and labels:
# [1] = system: lactating mammary gland; format: in vivo, mouse; details: for activity in inducing widespread lactating mammary gland necrosis: 50-100 mg/kg body weight
# Excerpt: (§1) White lactating female Quackenbush mice of body weight 40-50 g were used. All animal experiments followed the code of practice for the care and use of animals for experimental purposes as outlined by the Australian National Health and Medical Research Council. For the toxicity testing of leaf and crude extracts, on the fourth day after parturition the litter of each mouse was reduced to eight pups and weights of dam and litter respectively recorded. The dam was then separated from the litter and fasted overnight. On the following day and for 24 hours thereafter, the dam was offered 20 g of powdered commercial rodent diet containing 5% of powdered freeze-dried avocado leaf. In the case of preliminary organic extracts of the leaf, equivalent quantities were added to 20 g of powdered rodent diet, mixed thoroughly and the solvent evaporated under reduced pressure. After 24 hours on the medicated diet, regular untreated cubed diet was provided and the litter restored to the dam. At later stages of the isolation and purification of the active principle, the compound was suspended in up to 1 ml of 1% Tween 80 or Intralipid and given as a single dose by gavage on days 4 to 5 of lactation without prior fasting of the dam and simultaneous temporary removal of her pups. The dam and her pups were weighed daily. […] From 3 to 7 days after exposure to the avocado supplemented diet, or gavage of the purified extracts as the case may be, the dam was euthanased with carbon dioxide and all mammary glands and heart removed and fixed in buffered neutral 10% formalin for pathological examination.
# The R and S isomers of persin were tested for activity required to induce widespread lactating mammary gland necrosis at the dose rate of 50-100 mg/kg body weight.
# [2] = system: human breast cancer cell lines (MCF7, ZR75, T47D); experiment: Neutral red dye uptake assay (in vitro cytotoxicity), human breast cancer cell lines; format: cell-based; details: 10 to 0.3125 μg/ml, 20 hours incubation, average of 2 experiments, actual concentration reaching the cells unknown
# Excerpt: For purposes of using a rapid, simple and cheap method of pre-screening cytotoxicity, we chose the neutral red dye uptake procedure to test such activity in the given extract.
# Human breast and ovarian cancer cell lines were maintained in RPMI 1640 culture medium supplemented with 10% fetal calf serum, 2 mm L-glutamine and penicillin, streptomycin and fungizone. Cells were passaged by trypsinization and plated in 96-well flat-bottomed tissue culture plates at 5×10^4 cells per well. Cells were preincubated for 6 hours at 37° C., 5% CO2 in a humidified atmosphere to allow cell attachment prior to addition of the extract.
# Persin was dissolved in DMF (supplied by National Research Centre for Environmental Toxicology) to give a stock solution of 100 μg/ml. […] 10 μl of the solution was added to quadruplicate wells in doubling dilution from 10 μg/ml to 0.3125 μg/ml (final concentration). Control wells had tissue culture diluent added only. DMF controls had DMF added to a final concentration of 0.1%. The extract was incubated with the cells for 20 hours before being gently aspirated. Cells were washed twice with Hanks Balanced Salt Solution (HBSS) with centrifugation in special microtiter plate carriers between washes so as not to lose viable but dislodged cells.
# Neutral red was prepared fresh before each experiment from a 1% stock solution. One hundred microtiters of working solution (67 μg/ml in HBSS) was added to all wells and incubation continued for a further 4 hours. Non-absorbed dye was removed by washing cells as described above.
# Absorbed dye was extracted from cells by adding 100 μl of 50% ethanol in 1% acetic acid.
# Plates were mixed thoroughly to allow full extraction of the dye and were then read in a Multiscan plate reader at 540 nm. Dose response curves were constructed by plotting the percentage of untreated/control well OD540 versus concentration of extract. Individual extract concentration points were tested in quadruplicate and the results presented are averaged from 2 separate experiments. […]
# [3] = system: lactating mammary gland; format: in vivo; details: even as high single dose 200 mg/kg, mouse
# [4] = system: lactating mammary gland; details: Craigmill et al. (1989), cited from earlier work
# [5] = system: avocado lipoxygenase; details: declines during ripening of the fruit; cited from earlier work
# [6] = system: human colon cancer cell line (LS174T); experiment: Neutral red dye uptake assay (in vitro cytotoxicity), human colon cancer cell line; format: cell-based; details: any dose tested (10 to 0.3125 μg/ml), 20 hours
# [7] = system: heat and lactating mammary gland of the mouse; details: Sani et al., 1993 symposium; cited from earlier work
# [8] = system: Colletotrichum gloeosporioides; details: cited from earlier work
# [9] = system: myocardium; experiment: Pathological effects on the myocardium after oral dosing; format: in vivo, mouse
# Excerpt: as §1
# [10] = as above; format: in vivo, mouse; details: myocardium; mouse, oral; read-out: dose above which necrosis of myocardial fibres may occur
# Excerpt: as §1
# [11] = system: silkworm larvae; details: isolated from avocado leaves; Chang et al. 1975; cited from earlier work
compound,measurement,setting,value
CCCCC/C=C\C/C=C\CCCCCCCC(=O)CC(O)COC(C)=O (racemic) [mixture of isomers in equal proportions],activity in inducing widespread lactating mammary gland necrosis,[1]; mouse,less active than the R isomer
"CCCCCCCCCCCCCCCCCC(=O)C[C@@H](O)COC(C)=O [RMC328, (R)-2-Hydroxy-4-oxohenicosan-1-yl Acetate]",sensitivity of human breast cancer cell lines relative to other cell lines (neutral red uptake),[2],the three human breast cancer cell lines showing the greatest sensitivity to the compounds
"CCCCC/C=C\C/C=C\CCCCCCCC(=O)C[C@H](O)COC(C)=O [S isomer, (2S)-2-hydroxy-4-oxo-henicosa-12Z,15Z-dien-1-yl acetate]",activity in inducing widespread lactating mammary gland necrosis (high single dose),[3],inactive
COc1cc2c(c(OC)c1OC)-c1ccc(OC)c(=O)cc1[C@@H](NC(C)=O)CC2 [colchicine],mechanism: microtubule inhibition,[4],microtubule inhibitors
same,effect on milk ejection from secretory acinar cells,[4]; locally applied to the acinar cells,prevent ejection of milk from the cells into the acinar lumen
Oc1cc(O)c2c(c1)O[C@H](c1ccc(O)c(O)c1)[C@H](O)C2 [epicatechin],inhibition of avocado lipoxygenase,[5],inhibitor of the enzyme
"CCCCC/C=C\C/C=C\CCCCCCCC(=O)C[C@@H](O)COC(C)=O [persin, (+)-(Z,Z)-1-acetyloxy-2-hydroxy-12,15-heneicosadien-4-one]",effect on human colon cancer cell line (neutral red uptake),[6],not affected by the extract at any dose tested
same,sensitivity of human breast cancer cell lines relative to other cell lines (neutral red uptake),[2],Three human breast cancer cell lines showed greater sensitivity to the extract than other cell lines tested; also recorded: the three human breast cancer cell lines showing the greatest sensitivity to the compounds
same,sensitivity of human breast cancer cell lines relative to other cell lines (neutral red uptake),[2]; listed as extract,the human breast cancer cell lines were more sensitive to the extract than the other cell lines
same,toxicity for heart and lactating mammary gland,[7],responsible for demonstrated toxicity for the heat and lactating mammary gland of the mouse
same,antifungal activity,"[8]; isolated from avocado fruit peel or whole fruits, refs (ii) to (xiii)",exhibits antifungal activity in relation to the fungus Colletotrichum gloeosporioides
same,loss of activity on double bond oxidation,"[8]; natural compound, reference (v)",loses activity due to double bond oxidation
same,myocardium histology (FIG. 9C),"[9]; 100 mg/kg orally, seven days previously",marked atrophy of muscle fibres (M) interstitial haemorrhage (H) and early scar tissue formation (S)
same,myocardial fibrosis,"[9]; doses above 100 mg/kg, animals surviving for seven days",areas of myocardial fibrosis can be observed in animals surviving for seven days
same,hydrothorax / pulmonary oedema,"[9]; doses above 100 mg/kg, more severely affected animals",Hydrothoraz and/or pulmonary oedema may be present in more severly affected animals
same,damage to heart muscle,[9]; present studies,causes damage both to the lactating mammary gland and the heart muscle
same,NOAEL,[10],> 100 mg/kg
same,growth of silkworm larvae,[11],inhibited the growth of silkworm larvae
same,activity in inducing widespread lactating mammary gland necrosis,[1]; mouse,active
same,mammary epithelium histology (FIG. 9A),[1]; 72 hours after single oral dose of 60 mg/kg on 4th day of lactation,extensive coagulative necrosis of the secretory tissues
same,"single oral dose required to induce widespread, non-fatal injury to the lactating mammary gland","[1]; mouse, single oral dose",60 to 100 mg/kg
same,character of the mammary gland injury,"[1]; mouse, single oral dose, 60 to 100 mg/kg","interstitial oedema, congestion and haemorrhage and coagulative necrosis with desquamation of the acinar epithelial cells thereby preventing lactation"
same,inhibition of milk secretion,[1]; oral dosing,inhibition of milk secretion through such a necrogenic action on the secretory epithelium
same,damage to lactating mammary gland,[1]; present studies,causes damage both to the lactating mammary gland and the heart muscle
